# Data as given in patent publication US20190022225A1, “PROTOCOL FOR INCREASING LIFE EXPECTANCY IN A TEST SUBJECT” (Mayo Foundation for Medical Education and Research, priority 2015, published 2019).
# Test system: LDLR−/− mice fed a HFD
# Test: Atherosclerosis model, LDLR-/- mice on high fat diet treated with Nutlin-3A
# Assay type: in vivo, mouse
# Source text: Schematics of two atherosclerosis mouse models are presented in FIGS. 43A-B. The study illustrated in FIG. 43A assessed the extent to which clearance of senescent cells from plaques in LDLR^−/− mice with Nutlin-3A reduces plaque load. Two groups of LDLR^−/− mice (10 weeks) are fed a high fat diet (HFD) (Harlan Teklad TD.88137) having 42% calories from fat, beginning at Week 0 and throughout the study. Two groups of LDLR^−/− mice (10 weeks) are fed normal chow (−HFD). From weeks 0-2, one group of HFD mice and −HFD mice are treated with Nutlin-3A (25 mg/kg, intraperitoneally). One treatment cycle is 14 days treatment, 14 days off. Vehicle is administered to one group of HFD mice and one group of −HFD mice. At week 4 (timepoint 1), one group of mice are sacrificed and to assess presence of senescent cells in the plaques. For the some of the remaining mice, Nutlin-3A and vehicle administration is repeated from weeks 4-6. At week 8 (timepoint 2), the mice are sacrificed and to assess presence of senescent cells in the plaques. The remaining mice are treated with Nutlin-3A or vehicle from weeks 8-10. At week 12 (timepoint 3), the mice are sacrificed and to assess the level of plaque and the number of senescent cells in the plaques.
# Plasma lipid levels were measured in LDLR^−/− mice fed a HFD and treated with Nutlin-3A or vehicle at timepoint 1 as compared with mice fed a −HFD (n=3 per group). Plasma was collected mid-afternoon and analyzed for circulating lipids and lipoproteins.
# At the end of timepoint 1, LDLR^−/− mice fed a HFD and treated with Nutlin-3A or vehicle were sacrificed (n=3, all groups), and the aortic arches were dissected for RT-PCR analysis of SASP factors and senescent cell markers. Values were normalized to GAPDH and expressed as fold-change versus age-matched, vehicle-treated LDLR^−/− mice on a normal diet.
# At the end of timepoint 2, LDLR^−/− mice fed a HFD and treated with Nutlin-3A or vehicle (n=3 for all groups) were sacrificed, and aortic arches were dissected for RT-PCR analysis of SASP factors and senescent cell markers. Values were normalized to GAPDH and expressed as fold-change versus age-matched, vehicle-treated LDLR^−/− mice on a normal diet.
# At the end of timepoint 3, LDLR^−/− mice fed a HFD and treated with Nutlin-3A or vehicle (n=3 for all groups) were sacrificed, and aortas were dissected and stained with Sudan IV to detect the presence of lipid. Body composition of the mice was analyzed by MRI, and circulating blood cells were counted by Hemavet. […] As shown in FIGS. 48A-B, the platelet and lymphocyte counts were equivalent between the Nutlin-3A and vehicle treated mice.
compound,measurement,setting,value
COc1ccc(C2=N[C@@H](c3ccc(Cl)cc3)[C@@H](c3ccc(Cl)cc3)N2C(=O)N2CCNC(=O)C2)c(OC(C)C)c1 [Nutlin-3a],expression of SASP factors and senescent cell markers in aortic arch,"after 1 treatment cycle (25 mg/kg ip, 14 days on, 14 days off)",reduced expression of several SASP factors and senescent cell markers
same,expression of SASP factors and senescent cell markers in aortic arch,multiple treatment cycles (timepoint 2),reduced expression of most markers
same,platelet and lymphocyte counts versus vehicle,timepoint 3,equivalent
same,mass and body fat composition,"timepoint 3, HFD",decreased mass and body fat composition
same,reduction of plaques in the descending aorta,"timepoint 3, three treatment cycles, Sudan IV staining",~45%
